Read-outs that look alike come from different tables or passages of the source.
Legend:
Aβ1–40 peptide secretion [1] = conditions: SY5Y cells; cited from earlier work
SY5Y-APP^695WT cells [2] = conditions: 50% cell death after 72 h treatment; read-out: Cytotox. CC50; cited from earlier work
Aβ1–42 peptide secretion = assay: Aβ1–42 secretion in cell medium by ELISA; format: cell-based, human; conditions: SY5Y-APP^WT cells, 24 h treatment, mean ± SD of at least three experiments in triplicate
Procedure: (§1) The final and selected intermediate compounds were evaluated for their ability to modulate APP processing in the SH-SY5Y human neuroblastoma cell line stably expressing the neuronal isoform of human wild-type APP^695 (SY5Y-APP^WT), a well-established model for the study of APP metabolism. APP carboxy-terminal fragments (αCTFs and AICD) levels were assessed by Western blotting (WB). The effect of the reference and test compounds on αCTFs and AICD is expressed as the intensity of corresponding WB bands. The concentration of compounds able to increase 20-times αCTFs and AICD (C20) when compared to the control condition was calculated. Selected compounds were also evaluated for their ability to modulate the secretion of soluble APP fragments (sAPPα and sAPPβ). Aβ1–x levels (Aβ1–40 and Aβ1–42) after treatment with the reference and tested compounds were measured in the cell media by ELISA (Table 1). […] Selected hit compounds were then further evaluated for their ability to decrease the level of N-truncated Aβ peptides (Aβx–38, Aβx–40, and Aβx–42).
(§2) The human neuroblastoma cell line SY5Y-APP^695WT was maintained in Dulbecco’s modified Eagle medium (DMEM, high glucose, pyruvate—GIBCO, Life Technologies, Carlsbad, CA, USA) supplemented with 10% fetal bovine serum, 2 mM L-glutamine, 1 mM non-essential amino acids and penicillin/streptomycin (GIBCO, Life Technologies, Carlsbad, CA, USA) at 37 °C in a 5% CO2 humidified incubator [36]. For compound treatment, a 10 mM stock solution was diluted in freshly supplemented DMEM medium to obtain the precise final concentration of the drug. Cells were plated at a density of 5 × 10^5 cells per well into 12-well plates and cultured with 1 mL supplemented DMEM cell medium for 24 h before compound exposure. The following day, the cell medium was replaced with fresh medium containing the compounds diluted at the indicated concentrations. Cells were treated for 24 h. At the end of the treatments, the cell medium was collected and kept at −80 °C until use, cells were rinsed once with PBS and extracted in 100 µL of Laemmli buffer (10 mM Tris, 20% glycerol, and 2% sodium dodecyl sulfate) using a cell-scraper. The cell lysate was further sonicated (30 pulses of 0.5 s, 60 Hz) for 5 min. Total protein concentration was determined using the Pierce BCA Protein Assay Kit (Thermo Scientific, Waltham, MA, USA) according to the manufacturer’s instructions. Samples were stored at −80 °C until analysis.
(§3) Conditioned media of SY5Y-APP^695WT collected at the end of treatments were centrifuged at 1000× g for 5 min to eliminate cell debris.
(§4) Aβ1–40/Aβ1–42 peptides, Aβx–38/Aβx–40/Aβx–42, and sAPPα/sAPPβ concentrations in pg/mL were determined, respectively, using amyloid-beta 40 and 42 Human ELISA Kits (Invitrogen), the V-PLEX Plus Aβ Peptide Panel 1 (4G8) Kit (Meso Scale Diagnostics, MSD R©, Rockville, MD, USA), and the sAPPα/sAPPβ Multiplex Kit (Meso Scale Diagnostics, MSD R©, Rockville, MD, USA) according to the manufacturer’s instructions.

in vitro = format: cell-based, human; conditions: human
Procedure: (§5) Cytotoxicity was measured using 3-(4,5-dimethylthiazol-2-yl)-5-(3-carboxymethoxyphenyl)-2-(4-sulfophenyl)-2H-tetrazolium (MTS) tests. SY5Y-APP^695WT cells were plated in a 96-well plate at 3 × 10^4 cells per well and allowed to attach for 24 h. Cells were then incubated for 72 h with 100 µL of DMEM with 10% SVF containing (or not) the defined concentration of drugs. Cytotoxicity was determined by using the colorimetric MTS assay (Cell Titer 96® Aqueous One Solution Cell Proliferation Assay-MTS Promega, Madison, WI, USA) according to the manufacturer’s instructions. Absorbance was read at 490 nm.

[3] = test system: αCTF (APP carboxy-terminal fragment); assay: αCTF level by Western blotting in SY5Y-APP^WT cells; format: cell-based, human; conditions: for EC (20-fold increase): concentration increasing αCTF 20-fold vs untreated control, SY5Y-APP^WT cells, read-out: αCTF (C20)
Procedure: as §1, §2
(§6) Cell protein lysates were prepared for Western blot analysis by diluting the sample with 1 volume of NuPAGE® lithium dodecyl sulfate (LDS) 2X sample buffer supplemented with 20% NuPAGE® sample reducing agents (Invitrogen). Samples were heated for 10 min at 100 °C. Ten µg of total proteins per well were loaded onto precast 4–12% Criterion XT Bis-Tris polyacrylamide gels (Bio-Rad) and electrophoresis was achieved after applying a tension of 150 V for 90 min using a Criterion electrophoresis cell with the NuPAGE® MOPS SDS running buffer (1X). Proteins were transferred to a nitrocellulose membrane of […] pore size (G&E Healthcare, Madison, WI, USA) using the Criterion blotting system and applying a tension of 100 V for 45 min. To resolve proteins of low molecular weights such as carboxy-terminal fragments of APP, 12% Criterion XT Bis-Tris polyacrylamide gels (Bio-Rad, Hercules, CA, USA) were used, and electrophoresis was performed for 70 min at 150 V in a NuPAGE® MES SDS running buffer (1X). Proteins were transferred to a nitrocellulose membrane of 0.2 µm pore size (G&E Healthcare, Madison, WI, USA) at 100 V for 40 min. Molecular weight calibration was achieved using molecular weight markers (Novex and Magic Marks, Life Technologies, Carlsbad, CA, USA). Protein transfer and quality were determined by a reversible Ponceau Red coloration (0.2% xylidine Ponceau Red and 3% trichloroacetic acid). […]

Aβ1–40 peptide secretion [4] = assay: Aβ1–40 secretion in cell medium by ELISA; format: cell-based, human
Procedure: as §1, §2, §3, §4

[5] = test system: AICD (APP intracellular domain); assay: AICD level by Western blotting in SY5Y-APP^WT cells; format: cell-based, human; conditions: concentration increasing AICD 20-fold vs untreated control, read-out: AICD (C20)
Procedure: as §1, §2, §6

sAPPβ secretion = sAPPβ secretion (MSD sAPPα/sAPPβ Multiplex Kit); format: cell-based, human; conditions: SY5Y cells, mean ± SD of at least three experiments in triplicate
Procedure: (§7) A selection of compounds with several selected activities was performed including sAPPα and sAPPβ, which were further explored. […] The decrease in Aβ could result from a decrease in either β- or γ-secretase cleavage or an increase in the α-secretase cleavage of APP. Thus, medium concentrations of sAPPβ and sAPPα, which are the β- and α-secretase extramembrane shed APP fragments, were determined after cell drug treatments.
as §2, §3, §4

sAPPα = sAPPα secretion (MSD sAPPα/sAPPβ Multiplex Kit); format: cell-based, human; conditions: concentration increasing sAPPα 1.5-fold vs untreated control
Procedure: as §7
as §2, with “The cell lysate was further sonicated (30 pulses of 0.5 s, 60 Hz) for 5 min.” left out, “Samples were stored at −80 °C until analysis.” left out
as §4

p62/LC3 = assay: Ratio between p62 and LC3 expression levels; format: cell-based, human; conditions: compound at 3 µM, 24 h, SY5Y-APP^wt cells
Description: Compounds from both series were selected to first determine the potential relationship between the repression of Aβ1–x production and the increased expression of LC3 and p62. […] We then also considered the ratio between the p62 and LC3 expression levels.
Figure 3 Effect of compounds 24, 33, 34, 57, 65, 67, 70, and 71 on the autophagic flux in SY5Y-APP^wt cells. […] Cell lysates were immunolabeled with the following antibodies: p62 (a), LC3 (b), and β-actin. Statistical significance was set at * p < 0.05, ** p < […], *[…], **** p < 0.0001, and ns as not significant.

SY5Y-APP^695WT cells [6] = assay: in vitro; format: cell-based, human
Procedure: as §5

IC50 (Aβ1–42 peptide secretion; Homo sapiens) [µM] | IC50 (Aβ1–40 peptide secretion [4]; Homo sapiens, Aβ1–40 and Aβ1–42 not distinguished, read-out: IC50 for Aβ secretion (Aβ1–x production)) [µM] | IC50 (Aβ1–40 peptide secretion [4]; Homo sapiens, SY5Y-APP^WT cells, 24 h treatment, mean ± SD of at least three experiments in triplicate, read-out: Aβ1–40 IC50) [µM] | IC50 (sAPPβ secretion; Homo sapiens) [µM] | IC50 (Aβ1–42 peptide secretion) [µM] | IC50 (Aβ1–40 peptide secretion [4]; SY5Y-APP^WT cells, 24 h treatment, mean ± SD of at least three experiments in triplicate, read-out: Aβ1–40 IC50) [µM] | IC50 (sAPPβ secretion) [µM] | Compound | IC50 (Aβ1–40 peptide secretion [1]) [µM] | CC50 (SY5Y-APP^695WT cells [2]) [µM] | CC50 at 72 h (in vitro) [µM] | C20 for CTFα and AICD ([3]; CTFα and AICD together) | EC (20-fold increase) ([3]; Homo sapiens) [µM] | EC (20-fold increase) ([5]; Homo sapiens) [µM] | sAPPα C1.5 (sAPPα) [µM] | p62/LC3 (p62/LC3) | CC50 (SY5Y-APP^695WT cells [6]) [µM] | Cytotox. CC50 (SY5Y-APP^695WT cells [6]) [µM] | EC (20-fold increase) [3] [µM] | EC (20-fold increase) [5] [µM]
– | – | – | – | – | – | – | CCN(CC)CCCC(C)Nc1ccnc2cc(Cl)ccc12 (centres unmarked) [CQ, chloroquine, reference compound] | 7 | 30 | – | – | – | – | – | – | – | – | – | –
1.6 ± 0.1 | ~1 | 1.4 ± 0.1 | 2.8 ± 1.1 | – | – | – | Cc1cn(-c2cccc(CN(C)CCCN(C)C)c2)nc1-c1ccc(CN(C)CCCN(C)C)cc1 [Compound 69, [3-(Dimethylamino)propyl][(4-{1-[3-({[3-(dimethylamino)propyl](methyl)amino}methyl)phenyl]-4-methyl-1H-pyrazol-3-yl}phenyl)methyl]methylamine] | – | – | 2 | around 1 µM | 0.6 | 1 | >5 | – | – | – | – | –
– | – | – | – | 8.3 ± 0.2 | 5.7 ± 0.5 | 4.5 ± 0.7 | N′-[[3-[4-(Dimethylaminomethyl)-3-[4-[3-(dimethylamino)propyl]phenyl] Pyrazol-1-yl]phenyl]methyl]-N,N,N′-trimethyl-propane-1,3-diamine [Compound 34] | – | – | – | – | – | – | >10 | 0.91 | > 100 | 100 | 1.1 | 1.9

Source: publication PMC9658513, “Discovery of Compounds That Selectively Repress the Amyloidogenic Processing of the Amyloid Precursor Protein: Design, Synthesis and Pharmacological Evaluation of Diphenylpyrazoles” (International Journal of Molecular Sciences, 2022)
